This is an account of results in article PMC6092045 (Chemical communications (Cambridge, England), 2018).

The target in the experiment is T1, ERAAP (ER aminopeptidase associated with antigen processing) (Mus musculus, UniProt Q9EQH2).
T1 sequence (Q9EQH2 1-930): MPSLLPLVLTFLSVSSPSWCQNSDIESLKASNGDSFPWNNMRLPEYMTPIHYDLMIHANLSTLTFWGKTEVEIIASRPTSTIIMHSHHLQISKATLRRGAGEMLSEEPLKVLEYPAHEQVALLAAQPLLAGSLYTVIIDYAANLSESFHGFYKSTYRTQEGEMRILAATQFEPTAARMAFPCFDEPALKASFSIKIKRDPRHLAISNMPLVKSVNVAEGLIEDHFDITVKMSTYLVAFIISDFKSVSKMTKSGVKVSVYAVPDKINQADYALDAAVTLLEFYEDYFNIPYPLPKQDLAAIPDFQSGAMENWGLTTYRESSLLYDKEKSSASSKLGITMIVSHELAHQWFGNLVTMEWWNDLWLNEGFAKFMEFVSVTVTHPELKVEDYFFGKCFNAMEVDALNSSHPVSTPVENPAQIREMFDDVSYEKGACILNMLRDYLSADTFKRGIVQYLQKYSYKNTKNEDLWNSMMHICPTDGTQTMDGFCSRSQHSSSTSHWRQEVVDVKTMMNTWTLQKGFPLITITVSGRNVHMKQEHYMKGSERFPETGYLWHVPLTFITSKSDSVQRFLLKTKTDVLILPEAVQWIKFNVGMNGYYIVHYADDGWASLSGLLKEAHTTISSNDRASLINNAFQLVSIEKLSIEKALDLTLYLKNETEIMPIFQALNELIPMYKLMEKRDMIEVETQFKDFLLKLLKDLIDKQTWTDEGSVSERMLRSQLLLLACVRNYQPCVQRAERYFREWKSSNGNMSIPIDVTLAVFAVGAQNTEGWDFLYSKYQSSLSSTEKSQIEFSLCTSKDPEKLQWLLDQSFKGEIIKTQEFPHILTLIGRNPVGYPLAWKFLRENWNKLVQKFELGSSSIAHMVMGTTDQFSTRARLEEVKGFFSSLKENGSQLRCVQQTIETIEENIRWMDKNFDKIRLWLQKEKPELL
Put plainly: fluorogenic Ep peptide cleavage assay, dose-response. It is filed as biochemical.

SMILES strings stand for the structures.

Compound `C#CC(=O)c1ccc(Br)cc1F` [A, 1-(4-bromo-2-fluorophenyl)prop-2-yn-1-one] displayed a half-maximal inhibitory concentration (IC50) of 23 µM.

By IC50 is commonly meant the midpoint of a concentration-inhibition curve. Read a low IC50 as greater potency.
